Measurements as given in publication PMC2999882 (Molecular pharmacology, 2008).
Values joined by “and” are separate entries in the source; they are usually repeats but may differ in a detail not shown here. Equal entries are not always repeated. Where two headings read alike, the source gives them in different places.

Legend:
α7 nAChR [1] = settings: cited from earlier work
[2] = biological target: rat brain membrane α7 sites; settings: cited from earlier work
5HT3 receptors [3] = biological target: T1, 5HT3 receptors (Homo sapiens, UniProt P46098); settings: cited from earlier work
T1 sequence (P46098 24-478): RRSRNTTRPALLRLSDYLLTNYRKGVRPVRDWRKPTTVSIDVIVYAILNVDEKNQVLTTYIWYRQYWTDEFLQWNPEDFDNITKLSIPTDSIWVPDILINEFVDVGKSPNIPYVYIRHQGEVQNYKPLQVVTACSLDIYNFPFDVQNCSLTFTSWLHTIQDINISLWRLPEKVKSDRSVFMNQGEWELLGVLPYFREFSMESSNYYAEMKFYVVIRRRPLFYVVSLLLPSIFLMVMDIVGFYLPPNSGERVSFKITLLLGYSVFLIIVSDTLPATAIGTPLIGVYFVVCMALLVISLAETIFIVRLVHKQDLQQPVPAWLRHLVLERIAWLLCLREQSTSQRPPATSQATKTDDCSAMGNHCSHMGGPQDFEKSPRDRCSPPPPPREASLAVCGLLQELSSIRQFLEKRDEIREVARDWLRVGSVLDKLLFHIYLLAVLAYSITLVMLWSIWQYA

other nAChR tested = settings: cited from earlier work
human α7 = settings: cited from earlier work
5HT3 receptors [4] = biological target: T1, 5HT3 receptors; settings: cited from earlier work; remark: listed apart in the source
rat α7 nAChR = settings: X. laevis oocytes; ref Papke et al., 2005b; cited from earlier work
α4β2 nAChR [5] = biological target: T2, α4β2 nAChR (Homo sapiens, UniProt P17787+P43681); assay: cell-based; assay type: cell-based
T2 sequence (P43681 29-627 limits assumed): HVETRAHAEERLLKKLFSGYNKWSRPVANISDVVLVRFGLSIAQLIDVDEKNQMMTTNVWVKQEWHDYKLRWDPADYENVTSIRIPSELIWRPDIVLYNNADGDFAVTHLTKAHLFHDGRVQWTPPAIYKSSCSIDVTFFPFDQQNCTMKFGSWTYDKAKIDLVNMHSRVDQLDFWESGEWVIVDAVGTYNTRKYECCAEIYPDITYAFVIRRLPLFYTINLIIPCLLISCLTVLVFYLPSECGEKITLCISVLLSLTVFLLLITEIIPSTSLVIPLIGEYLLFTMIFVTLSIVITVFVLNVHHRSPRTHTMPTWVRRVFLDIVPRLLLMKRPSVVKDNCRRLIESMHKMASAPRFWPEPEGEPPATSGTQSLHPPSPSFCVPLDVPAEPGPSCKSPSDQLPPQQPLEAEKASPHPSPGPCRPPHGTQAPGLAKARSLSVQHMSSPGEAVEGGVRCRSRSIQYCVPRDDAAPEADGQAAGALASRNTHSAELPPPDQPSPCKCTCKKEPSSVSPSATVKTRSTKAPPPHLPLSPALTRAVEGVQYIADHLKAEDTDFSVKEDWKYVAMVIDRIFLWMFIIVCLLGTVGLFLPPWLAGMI
T2 sequence (P17787 26-502): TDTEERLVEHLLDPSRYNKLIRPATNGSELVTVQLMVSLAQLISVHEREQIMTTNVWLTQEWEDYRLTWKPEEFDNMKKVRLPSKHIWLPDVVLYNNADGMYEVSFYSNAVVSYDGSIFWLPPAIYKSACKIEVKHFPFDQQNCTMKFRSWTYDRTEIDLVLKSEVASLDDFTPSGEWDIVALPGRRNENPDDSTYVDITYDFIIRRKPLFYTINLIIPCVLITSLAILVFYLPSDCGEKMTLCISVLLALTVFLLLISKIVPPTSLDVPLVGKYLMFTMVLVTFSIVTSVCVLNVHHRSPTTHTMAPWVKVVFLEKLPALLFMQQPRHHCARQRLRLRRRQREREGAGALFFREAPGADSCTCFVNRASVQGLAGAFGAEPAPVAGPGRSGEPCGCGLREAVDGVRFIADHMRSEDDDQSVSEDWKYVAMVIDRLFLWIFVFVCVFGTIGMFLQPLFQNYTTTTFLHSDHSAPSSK

α4β2 nAChR [6] = biological target: T2, α4β2 nAChR; assay type: cell-based; settings: 100 µM coapplied with 30 µM ACh
[7] = biological target: T3, muscle type (α1β1εδ) nAChR (Homo sapiens, UniProt P02708+Q04844+Q07001); assay type: cell-based; settings: 100 µM; normalized to ACh maximum; detection threshold 0.5%
T3 sequence (P02708 21-457): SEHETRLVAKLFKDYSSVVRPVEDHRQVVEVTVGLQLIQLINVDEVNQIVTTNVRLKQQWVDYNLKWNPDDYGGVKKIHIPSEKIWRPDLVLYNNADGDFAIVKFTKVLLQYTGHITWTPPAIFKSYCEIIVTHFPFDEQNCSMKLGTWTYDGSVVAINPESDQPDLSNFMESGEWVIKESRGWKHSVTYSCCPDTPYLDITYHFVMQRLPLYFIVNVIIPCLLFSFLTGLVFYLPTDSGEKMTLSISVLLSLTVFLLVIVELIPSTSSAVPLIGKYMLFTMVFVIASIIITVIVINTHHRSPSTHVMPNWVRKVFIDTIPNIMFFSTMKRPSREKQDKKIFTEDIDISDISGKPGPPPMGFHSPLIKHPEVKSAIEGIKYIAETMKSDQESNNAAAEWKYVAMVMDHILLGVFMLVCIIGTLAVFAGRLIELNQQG
T3 sequence (P11230 24-501 partner): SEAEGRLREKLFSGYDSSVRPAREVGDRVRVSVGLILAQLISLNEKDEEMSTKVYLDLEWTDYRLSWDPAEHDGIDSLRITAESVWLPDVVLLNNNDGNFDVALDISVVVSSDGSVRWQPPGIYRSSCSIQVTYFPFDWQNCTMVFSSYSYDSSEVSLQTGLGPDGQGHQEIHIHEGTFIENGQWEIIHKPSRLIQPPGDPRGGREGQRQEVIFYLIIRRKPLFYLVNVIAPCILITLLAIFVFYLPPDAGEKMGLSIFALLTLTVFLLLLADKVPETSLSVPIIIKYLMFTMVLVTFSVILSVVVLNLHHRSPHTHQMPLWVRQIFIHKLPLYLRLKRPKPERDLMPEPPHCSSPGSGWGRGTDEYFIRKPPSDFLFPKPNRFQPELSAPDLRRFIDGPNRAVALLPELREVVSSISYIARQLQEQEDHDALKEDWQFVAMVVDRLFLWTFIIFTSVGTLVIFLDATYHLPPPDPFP
T3 sequence (Q04844 21-493): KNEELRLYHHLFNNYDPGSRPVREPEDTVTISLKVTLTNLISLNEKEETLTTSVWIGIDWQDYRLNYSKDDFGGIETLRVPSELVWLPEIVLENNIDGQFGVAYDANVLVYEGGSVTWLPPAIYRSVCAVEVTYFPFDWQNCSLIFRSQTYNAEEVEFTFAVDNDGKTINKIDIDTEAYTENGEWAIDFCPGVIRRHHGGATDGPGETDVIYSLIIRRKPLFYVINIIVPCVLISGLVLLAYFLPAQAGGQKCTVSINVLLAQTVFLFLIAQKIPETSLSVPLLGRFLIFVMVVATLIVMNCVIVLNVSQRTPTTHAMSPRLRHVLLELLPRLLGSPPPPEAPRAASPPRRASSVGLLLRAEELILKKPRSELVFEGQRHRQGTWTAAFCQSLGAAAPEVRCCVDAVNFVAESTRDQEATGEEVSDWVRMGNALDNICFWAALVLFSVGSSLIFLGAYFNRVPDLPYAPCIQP
T3 sequence (Q07001 22-517): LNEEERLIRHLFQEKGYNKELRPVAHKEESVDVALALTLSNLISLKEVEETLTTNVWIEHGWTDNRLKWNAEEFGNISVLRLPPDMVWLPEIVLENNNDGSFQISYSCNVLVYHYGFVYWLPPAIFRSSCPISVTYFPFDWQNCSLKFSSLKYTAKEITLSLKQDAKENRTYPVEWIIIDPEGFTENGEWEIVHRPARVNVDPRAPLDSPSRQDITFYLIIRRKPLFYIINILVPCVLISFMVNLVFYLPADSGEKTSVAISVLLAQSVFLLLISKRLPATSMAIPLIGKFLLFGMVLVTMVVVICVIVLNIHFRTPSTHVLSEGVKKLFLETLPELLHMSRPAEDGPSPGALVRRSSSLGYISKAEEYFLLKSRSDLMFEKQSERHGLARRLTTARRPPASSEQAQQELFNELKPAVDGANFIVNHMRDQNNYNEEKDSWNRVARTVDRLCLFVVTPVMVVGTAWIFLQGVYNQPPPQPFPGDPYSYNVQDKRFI

[8] = biological target: T3, muscle type (α1β1εδ) nAChR; assay type: cell-based; settings: 100 µM coapplied with 3 µM ACh
5HT3 receptors [9] = biological target: T1, 5HT3 receptors; assay type: cell-based; settings: 100 µM; normalized to maximal serotonin response; detection threshold 5%
5HT3 receptors [10] = biological target: T1, 5HT3 receptors; assay type: cell-based; settings: 100 µM coapplied with 10 µM serotonin
α9 nAChR = settings: ref Papke et al., 1996; Verbitsky et al., 2000; cited from earlier work
α7 nAChR [11] = biological target: α7 nAChR (Homo sapiens, UniProt P36544)
α7 nAChR (Homo sapiens, UniProt P36544), sequence (P36544 23-502): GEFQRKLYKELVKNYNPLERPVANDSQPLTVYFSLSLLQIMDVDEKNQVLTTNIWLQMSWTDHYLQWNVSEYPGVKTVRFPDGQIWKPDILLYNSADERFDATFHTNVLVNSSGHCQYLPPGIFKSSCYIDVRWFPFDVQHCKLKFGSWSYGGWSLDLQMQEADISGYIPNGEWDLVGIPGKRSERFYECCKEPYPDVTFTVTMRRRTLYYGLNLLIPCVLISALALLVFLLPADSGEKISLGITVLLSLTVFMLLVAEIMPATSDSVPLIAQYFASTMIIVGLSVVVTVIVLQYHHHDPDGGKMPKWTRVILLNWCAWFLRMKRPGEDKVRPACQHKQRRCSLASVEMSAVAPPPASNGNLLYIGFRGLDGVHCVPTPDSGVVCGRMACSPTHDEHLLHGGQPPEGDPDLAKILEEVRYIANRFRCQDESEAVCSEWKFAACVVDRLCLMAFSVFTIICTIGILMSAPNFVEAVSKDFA

α3β4 nAChR = α3β4 nAChR (Homo sapiens, UniProt P30926+P32297)
α3β4 nAChR, sequence (P32297 32-505): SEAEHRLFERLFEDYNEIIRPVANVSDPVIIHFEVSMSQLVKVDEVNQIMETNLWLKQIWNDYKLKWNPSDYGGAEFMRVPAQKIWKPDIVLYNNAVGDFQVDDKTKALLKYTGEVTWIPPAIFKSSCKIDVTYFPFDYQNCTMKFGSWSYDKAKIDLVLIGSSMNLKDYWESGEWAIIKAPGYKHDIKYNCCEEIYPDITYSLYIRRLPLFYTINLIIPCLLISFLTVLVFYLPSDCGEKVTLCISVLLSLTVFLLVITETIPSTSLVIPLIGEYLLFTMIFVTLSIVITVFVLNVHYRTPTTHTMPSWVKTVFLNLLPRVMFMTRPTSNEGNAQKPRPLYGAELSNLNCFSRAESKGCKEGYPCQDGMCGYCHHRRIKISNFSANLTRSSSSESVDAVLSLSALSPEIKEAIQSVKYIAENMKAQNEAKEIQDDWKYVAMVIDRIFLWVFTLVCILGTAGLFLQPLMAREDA
α3β4 nAChR, sequence (P30926 22-498): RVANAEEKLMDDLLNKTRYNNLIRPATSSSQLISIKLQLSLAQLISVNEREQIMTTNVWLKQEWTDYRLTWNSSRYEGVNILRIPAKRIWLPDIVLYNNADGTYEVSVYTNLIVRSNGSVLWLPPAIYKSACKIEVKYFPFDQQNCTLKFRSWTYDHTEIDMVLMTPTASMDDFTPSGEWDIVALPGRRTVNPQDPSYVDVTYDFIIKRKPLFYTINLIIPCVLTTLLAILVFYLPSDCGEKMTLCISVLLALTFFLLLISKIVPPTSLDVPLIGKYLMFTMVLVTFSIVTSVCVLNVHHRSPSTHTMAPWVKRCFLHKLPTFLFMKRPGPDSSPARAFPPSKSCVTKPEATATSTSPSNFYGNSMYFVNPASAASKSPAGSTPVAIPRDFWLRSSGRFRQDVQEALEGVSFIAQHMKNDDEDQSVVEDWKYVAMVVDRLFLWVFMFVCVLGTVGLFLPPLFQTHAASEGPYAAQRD

## O=C(Oc1ccc(Br)cc1)N1CCN2CCC1CC2 [SSR-180711]
α7 nAChR [1]; binding and voltage-clamp experiments, ref Biton et al., 2007
  agonist character at α7 (Summary): A relatively potent partial agonist with selectivity for α7 compared with other nAChR subtypes tested established by binding and voltage-clamp experiments.

## O=C(N[C@H]1CN2CCC1CC2)c1ccc(Cl)cc1 [PNU-282987]
[2]; read-out: Ki, displacement of MLA binding from rat brain homogenates
  Ki: 0.027 µM
5HT3 receptors [3]; read-out: IC50 5HT3 receptors (functional antagonist)
  IC50: ~5 µM

## c1cncc(C2CCC3CCN2CC3)c1 (stereo not shown) [TC-1698, 2-(3-pyridyl)-1-azabicyclo[3.2.2]nonane]
α7 nAChR [1]
  agonist character at α7 (Summary): A potent full agonist for α7 nAChR with negligible activation of the heteromeric neuronal nAChR tested but with low-potency partial agonist activity for muscle nAChR. Effective competitive antagonist at α4β2 nAChR.
Other nAChR tested
  activation of the heteromeric neuronal nAChR tested (Summary): A potent full agonist for α7 nAChR with negligible activation of the heteromeric neuronal nAChR tested but with low-potency partial agonist activity for muscle nAChR. Effective competitive antagonist at α4β2 nAChR.
  activity at α4β2 nAChR (Summary): A potent full agonist for α7 nAChR with negligible activation of the heteromeric neuronal nAChR tested but with low-potency partial agonist activity for muscle nAChR. Effective competitive antagonist at α4β2 nAChR.
  activity for muscle nAChR (Summary): A potent full agonist for α7 nAChR with negligible activation of the heteromeric neuronal nAChR tested but with low-potency partial agonist activity for muscle nAChR. Effective competitive antagonist at α4β2 nAChR.

## C[C@H](OC(=O)N[C@@H]1CN2CCC1CC2)c1ccccc1F [JN403]
α7 nAChR [1]
  α7 efficacy, % of that of ACh: In the X. laevis oocyte experiments, JN403 was a relatively potent partial agonist, with an efficacy of approximately 50% of that of ACh. 5HT3 receptors and other nAChRs were evaluated with calcium flux measurements in transfected cells, and JN403 was antagonist in these experiments.
Other nAChR tested
  activity at 5HT3 receptors and other nAChRs (Summary): In the X. laevis oocyte experiments, JN403 was a relatively potent partial agonist, with an efficacy of approximately 50% of that of ACh. 5HT3 receptors and other nAChRs were evaluated with calcium flux measurements in transfected cells, and JN403 was antagonist in these experiments.
5HT3 receptors [3]; read-out: IC50 5HT3 receptors (antagonist)
  IC50: ~20 µM

## COc1ccccc1-c1cccc2cc(C(=O)N[C@H]3CN4CCC3CC4)oc12 [ABBF, N-[(3R)-1-azabicyclo[2.2.2]oct-3-yl]-7-[2-(methoxy)phenyl]-1-benzofuran-2-carboxamide]
Human α7
  agonist character at human α7 (Summary): Putative full agonist for human α7 (EC50 ≈ 3 µM) and an antagonist for other nAChR tested (IC50 values of 1–8 µM). Mechanism of antagonism not investigated. Bound to 5HT3 receptors with high affinity (60 nM), comparable with rat brain membrane α7 sites (62 nM).
Human α7; read-out: EC50 human α7
  EC50: ~3 µM
5HT3 receptors [4]
  affinity for 5HT3 receptors: Putative full agonist for human α7 (EC50 ≈ 3 µM) and an antagonist for other nAChR tested (IC50 values of 1–8 µM). Mechanism of antagonism not investigated. Bound to 5HT3 receptors with high affinity (60 nM), comparable with rat brain membrane α7 sites (62 nM).
[2]
  affinity for rat brain membrane α7 sites: Putative full agonist for human α7 (EC50 ≈ 3 µM) and an antagonist for other nAChR tested (IC50 values of 1–8 µM). Mechanism of antagonism not investigated. Bound to 5HT3 receptors with high affinity (60 nM), comparable with rat brain membrane α7 sites (62 nM).
5HT3 receptors [3]
  Effects on 5HT3 Receptors: Antagonist

## cis-1-methyl-2,3,3a,4,5,9b,-hexahydro-1H-pyrrolo[2,3-f]quinoline [ACME]
Rat α7 nAChR
  Imax, % of that of ACh, rat α7 nAChR: The rigid nicotine analogs ACME and ACME-B were partial agonists for rat α7 nAChR (Imax, 10 and 20% of that of ACh, respectively). ACME-B was 2-fold more potent (EC50 ≈ 26 µM) than the boron-free form ACME. Potential antagonist activity of non-α7 nAChR not investigated.

## C[N+](C)(C)CCO [Choline, choline, reference compound]
α4β2 nAChR [5]; 100 µM, normalized to ACh maximum, detection threshold 1%
  α4β2 Activity: ≈1%
α4β2 nAChR [5]; 3 mM agonist
  α4β2 response, % of the ACh maximum: 2.3 ± 0.3% and 2%
α4β2 nAChR [6]
  α4β2 Inhibition: N.S.
[7]
  α1β1εδ Activity: N
[8]
  α1β1εδ Inhibition: N.S.
5HT3 receptors [9]
  5HT3 Activity: N
5HT3 receptors [10]
  5HT3 Inhibition: N.S.
α7 nAChR [1]
  potency for α7, fold lower than that of ACh: 10 fold
Other nAChR tested; ref Papke et al., 1996, Verbitsky et al., 2000
  activity at heteromeric nAChR (Summary): little or no activity
α9 nAChR
  activity at α9 nAChR (Summary): agonist
α7 nAChR [11]
  EC50: 243 ± 8 µM
  α7 Imax: 0.90 ± 0.1
  α7 potency, fold less potent than ACh: approximately 10 fold
  α7 potency, fold lower than related agonists that lack the oxygen group (e.g., ETMA and QN): at least 10 fold
α3β4 nAChR
  agonist character at α3β4: too low to be characterized in regard to potency
α3β4 nAChR; peak current, relative to ACh maximum (ACh constrained to 1)
  α3β4 Imax: 0.04 ± 0.01

## CN1C[C@@H]2CN(c3ccc4oc5ccccc5c(=O)c4c3)C[C@@H]2C1 [A-844606]
α7 nAChR [1]
  agonist character at α7 (Summary): Partial agonist of a7 with relatively little activation of other nAChR tested. Demonstrated to have antagonist activity for α4β2 and more potently for putative α3β4. Mechanism of antagonism not investigated.
Other nAChR tested
  activity at other nAChR (Summary): Partial agonist of a7 with relatively little activation of other nAChR tested. Demonstrated to have antagonist activity for α4β2 and more potently for putative α3β4. Mechanism of antagonism not investigated.

## O=C(N[C@@H]1C[C@H]2CCN(C2)C1)c1cc2ccoc2cn1 [PHA-709829, N-[(3R,5R)-1-azabicyclo[3.2.1]oct-3-yl]furo[2,3-c]pyridine-5-carboxamide]
5HT3 receptors [3]; ref Acker et al., 2008
  5HT3 receptors, inhibitory activity at: Inhibitory activity at ≈ 300 nM

## CCN(CC)CCOc1ccc2c(c1)C(=O)c1cc(OCCN(CC)CC)ccc1-2 [Tilorone]
α7 nAChR [1]; human α7, rat α7, oocytes, transfected cells, ref Briggs et al., 2008
  agonist character at α7 (Summary): Partial agonist
Other nAChR tested; α4β2, putative α3β4 (IMR-32), ref Briggs et al., 2008
  activity at other nAChR (Summary): antagonist activity for α4β2 and more potently for putative α3β4
